US20230373930A1, “AMINOIMIDAZOLE FPR2 AGONISTS” (BRISTOL-MYERS SQUIBB COMPANY, priority 2020, published 2023)

Columns and labels:
[1] = target: T1, human FPR2 (Homo sapiens, UniProt P25090); assay: FPR2 cyclic adenosine monophosphate (cAMP) assay; format: cell-based; conditions: CHO cells overexpressing human FPR2; forskolin 5 μM; inhibition of cAMP production; HTRF; read-out: hFPR2 cAMP2 EC50
T1 sequence (P25090 1-351): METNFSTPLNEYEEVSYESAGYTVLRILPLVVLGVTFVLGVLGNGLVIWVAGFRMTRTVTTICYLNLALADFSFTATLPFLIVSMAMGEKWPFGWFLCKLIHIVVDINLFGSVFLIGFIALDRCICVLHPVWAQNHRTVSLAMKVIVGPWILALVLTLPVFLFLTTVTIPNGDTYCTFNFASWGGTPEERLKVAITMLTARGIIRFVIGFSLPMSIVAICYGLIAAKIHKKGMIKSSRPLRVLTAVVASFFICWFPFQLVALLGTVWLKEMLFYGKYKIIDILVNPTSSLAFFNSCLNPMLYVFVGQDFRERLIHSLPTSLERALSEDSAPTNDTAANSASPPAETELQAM
Procedure: (§1) FPR2 and FPR1 Cyclic Adenosine Monophosphate (cAMP) Assays. A mixture of forskolin (5 μM final for FPR2 or 10 μM final for FPR1) and IBMX (200 μM final) were added to 384-well Proxiplates (Perkin-Elmer) pre-dotted with test compounds in DMSO (1% final) at final concentrations in the range of 0.020 nM to 100 μM. Chinese Hamster Ovary cells (CHO) overexpressing human FPR1 or human FPR2 receptors were cultured in F-12 (Ham's) medium supplemented with 10% qualified FBS, 250 μg/ml zeocin and 300 μg/ml hygromycin (Life Technologies). Reactions were initiated by adding 2,000 human FPR2 cells per well or 4,000 human FPR1 cells per well in Dulbecco's PBS (with calcium and magnesium) (Life Technologies) supplemented with 0.1% BSA (Perkin-Elmer). The reaction mixtures were incubated for 30 min at room temperature. The level of intracellular cAMP was determined using the HTRF HiRange cAMP assay reagent kit (Cisbio) according to manufacturer's instruction. Solutions of cryptate conjugated anti-cAMP and d2 flurorophore-labelled cAMP were made in a supplied lysis buffer separately. Upon completion of the reaction, the cells were lysed with equal volume of the d2-cAMP solution and anti-cAMP solution. After a 1-h room temperature incubation, time-resolved fluorescence intensity was measured using the Envision (Perkin-Elmer) at 400 nm excitation and dual emission at 590 nm and 665 nm. A calibration curve was constructed with an external cAMP standard at concentrations ranging from 1 μM to 0.1 μM by plotting the fluorescent intensity ratio from 665 nm emission to the intensity from the 590 nm emission against cAMP concentrations. The potency and activity of a compound to inhibit cAMP production was then determined by fitting to a 4-parametric logistic equation from a plot of cAMP level versus compound concentrations.

[2] = target: T2, human FPR1 (Homo sapiens, UniProt P21462); assay: FPR1 cyclic adenosine monophosphate (cAMP) assay; format: cell-based; conditions: CHO cells overexpressing human FPR1; forskolin 10 μM; inhibition of cAMP production; HTRF; read-out: hFPR1 cAMP2 EC50
T2 sequence (P21462 1-350): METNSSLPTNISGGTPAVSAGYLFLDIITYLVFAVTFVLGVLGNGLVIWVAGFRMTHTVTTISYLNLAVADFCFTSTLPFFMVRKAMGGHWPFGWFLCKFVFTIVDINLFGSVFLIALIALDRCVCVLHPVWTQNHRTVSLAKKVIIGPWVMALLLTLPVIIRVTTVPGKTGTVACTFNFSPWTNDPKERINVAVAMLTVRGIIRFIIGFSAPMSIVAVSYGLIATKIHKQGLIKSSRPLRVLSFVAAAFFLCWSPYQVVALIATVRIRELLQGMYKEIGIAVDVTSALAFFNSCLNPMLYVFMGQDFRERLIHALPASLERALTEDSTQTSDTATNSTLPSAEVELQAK
Procedure: as §1

Row | Structure (SMILES) | EC50 [1] | EC50 [2]
1 | COc1cccc(-c2cn(-c3c(F)cc(OC)cc3F)c(NC(=O)c3ccc(OC(F)F)cc3)n2)c1 [Example 3, N-[1-(2,6-Difluoro-4-methoxyphenyl)-4-(3-methoxyphenyl)-1H-imidazol-2-yl]-4-(difluoromethoxy)benzamide] | 8 nM | 88 nM
2 | COc1cc(F)c(-n2cc(-c3ccc(F)cc3)nc2NC(=O)c2ccc(OC(F)F)cc2)c(F)c1 [Example 4, N-[1-(2,6-Difluoro-4-methoxyphenyl)-4-(4-fluorophenyl)-1H-imidazol-2-yl]-4-(difluoromethoxy)benzamide] | 11 nM | 400 nM
3 | COc1cc(F)c(-n2cc(-c3ccc(Cl)c(C)c3)nc2NC(=O)c2ccc(OC(F)F)cc2)c(F)c1 [Example 5, N-[4-(4-Chloro-3-methylphenyl)-1-(2,6-difluoro-4-methoxyphenyl)-1H-imidazol-2-yl]-4-(difluoromethoxy)benzamide] | 47 nM | 140 nM
4 | COc1cc(F)c(-n2cc(-c3ccc(C(F)(F)F)cc3)nc2NC(=O)c2ccc(OC(F)F)cc2)c(F)c1 [Example 6, N-[1-(2,6-Difluoro-4-methoxyphenyl)-4-[4-(trifluoromethyl)phenyl]-1H-imidazol-2-yl]-4-(difluoromethoxy)benzamide] | 76 nM | 120 nM
5 | COc1cc(F)c(-n2cc(-c3ccc(OC(F)F)cc3)nc2NC(=O)c2ccc(OC(F)F)cc2)c(F)c1 [Example 7, N-[1-(2,6-Difluoro-4-methoxyphenyl)-4-[4-(difluoromethoxy)phenyl]-1H-imidazol-2-yl]-4-(difluoromethoxy)benzamide] | 33 nM | 190 nM
6 | COc1cc(F)c(-n2c(NC(=O)c3ccc(OC(F)F)cc3)nc(-c3ccccc3)c2C)c(F)c1 [Example 8, N-[1-(2,6-Difluoro-4-methoxyphenyl)-5-methyl-4-phenyl-1H-imidazol-2-yl]-4-(difluoromethoxy)benzamide] | 8 nM | 230 nM
7 | COc1cc(F)c(-n2cc(-c3cccc(F)c3)nc2NC(=O)c2ccc(OC(F)F)cc2)c(F)c1 [Example 10, N-[1-(2,6-Difluoro-4-methoxyphenyl)-4-(3-fluorophenyl)-1H-imidazol-2-yl]-4-(difluoromethoxy)benzamide] | 7 nM | 200 nM
8 | COc1cc(F)c(-n2cc(-c3ccc(Cl)cc3)nc2NC(=O)c2ccc(OC(F)F)cc2)c(F)c1 [Example 11, N-[4-(4-Chlorophenyl)-1-(2,6-difluoro-4-methoxyphenyl)-1H-imidazol-2-yl]-4-(difluoromethoxy)benzamide] | 24 nM | 140 nM
9 | COc1cc(F)c(-n2cc(-c3cccc(Cl)c3)nc2NC(=O)c2ccc(OC(F)F)cc2)c(F)c1 [Example 12, N-[4-(3-Chlorophenyl)-1-(2,6-difluoro-4-methoxyphenyl)-1H-imidazol-2-yl]-4-(difluoromethoxy)benzamide] | 15 nM | 450 nM
10 | COc1cc(F)c(-n2c(NC(=O)c3ccc(OC(F)F)cc3)nc(-c3ccc(Cl)cc3)c2C)c(F)c1 [Example 13, N-[4-(4-Chlorophenyl)-1-(2,6-difluoro-4 methoxyphenyl)-5-methyl-1H-imidazol-2-yl]-4-(difluoromethoxy)benzamide] | 53 nM | 550 nM
11 | COc1cc(F)c(-n2cc(-c3ccc(C)cc3)nc2NC(=O)c2ccc(OC(F)F)cc2)c(F)c1 [Example 15, N-[1-(2,6-Difluoro-4-methoxyphenyl)-4-(4-methylphenyl)-1H-imidazol-2-yl]-4-(difluoromethoxy)benzamide] | 23 nM | 130 nM
12 | COc1cc(F)c(-n2cc(-c3ccc(C#N)cc3)nc2NC(=O)c2ccc(OC(F)F)cc2)c(F)c1 [Example 16, N-[4-(4-Cyanophenyl)-1-(2,6-difluoro-4-methoxyphenyl)-1H-imidazol-2-yl]-4-(difluoromethoxy)benzamide] | 27 nM | 230 nM
13 | COc1cc(F)c(-n2cc(-c3cccc(C#N)c3)nc2NC(=O)c2ccc(OC(F)F)cc2)c(F)c1 [Example 17, N-[4-(3-Cyanophenyl)-1-(2,6-difluoro-4-methoxyphenyl)-1H-imidazol-2-yl]-4-(difluoromethoxy)benzamide] | 5 nM | 46 nM
14 | COc1cc(F)c(-n2cc(-c3ccc(Cl)c(Cl)c3)nc2NC(=O)c2ccc(OC(F)F)cc2)c(F)c1 [Example 18, N-[4-(3,4-Dichlorophenyl)-1-(2,6-difluoro-4-methoxyphenyl)-1H-imidazol-2-yl]-4-(difluoromethoxy)benzamide] | 51 nM | 400 nM

The next lines start with the values.

Row | EC50 [1] | EC50 [2] | Structure (SMILES)
15 | 4 nM | 200 nM | COc1cc(F)c(-n2cc(-c3ccccc3)nc2NC(=O)c2ccc(OC(F)F)cc2)c(F)c1 [Example 1, N-[1-(2,6-Difluoro-4-methoxyphenyl)-4-phenyl-1H-imidazol-2-yl]-4-(difluoromethoxy)benzamide]
16 | 3 nM | 38 nM | COc1ccc(-n2cc(-c3ccccc3)nc2NC(=O)c2ccc(OC(F)F)cc2)cc1 [Example 2, 4-(Difluoromethoxy)-N-[1-(4-methoxyphenyl)-4-phenyl-1H-imidazol-2-yl]benzamide]
17 | 220 nM | 460 nM | COc1cc(F)c(-n2cc(-c3ccc4ccccc4c3)nc2NC(=O)c2ccc(OC(F)F)cc2)c(F)c1 [Example 9, N-[1-(2,6-Difluoro-4-methoxyphenyl)-4-(naphthalen-2-yl)-1H-imidazol-2-yl]-4-(difluoromethoxy)benzamide]
18 | 39 nM | 160 nM | COc1ccc(-c2cn(-c3c(F)cc(OC)cc3F)c(NC(=O)c3ccc(OC(F)F)cc3)n2)cc1 [Example 14, N-[1-(2,6-Difluoro-4-methoxyphenyl)-4-(4-methoxyphenyl)-1H-imidazol-2-yl]-4-(difluoromethoxy)benzamide]
19 | 28 nM | 93 nM | COc1ccc(-n2cc(-c3ccc4c(c3)CCO4)nc2NC(=O)c2ccc(OC(F)F)cc2)cc1 [Example 19, 4-(Difluoromethoxy)-N-[4-(2,3-dihydro-1-benzofuran-5-yl)-1-(4-methoxyphenyl)-1H-imidazol-2-yl]benzamide]
20 | 5 nM | 19 nM | COc1ccc(-n2cc(-c3ccnc(Cl)c3)nc2NC(=O)c2ccc(OC(F)F)cc2)cc1 [Example 20, N-[4-(2-Chloropyridin-4-yl)-1-(4-methoxyphenyl)-1H-imidazol-2-yl]-4-(difluoromethoxy)benzamide]
21 | 29 nM | 76 nM | COc1ccc(-n2cc(-c3ccc(F)cc3F)nc2NC(=O)c2ccc(OC(F)F)cc2)cc1 [Example 21, 4-(Difluoromethoxy)-N-[4-(2,4-difluorophenyl)-1-(4-methoxyphenyl)-1H-imidazol-2-yl]benzamide]
22 | 86 nM | 140 nM | COc1ccc(-n2cc(-c3ccc4sccc4c3)nc2NC(=O)c2ccc(OC(F)F)cc2)cc1 [Example 22, N-[4-(1-Benzothiophen-5-yl)-1-(4-methoxyphenyl)-1H-imidazol-2-yl]-4-(difluoromethoxy)benzamide]
23 | 28 nM | 44 nM | COc1ccc(-n2cc(-c3nc4ccccc4s3)nc2NC(=O)c2ccc(OC(F)F)cc2)cc1 [Example 23, N-[4-(1,3-Benzothiazol-2-yl)-1-(4-methoxyphenyl)-1H-imidazol-2-yl]-4-(difluoromethoxy)benzamide]
